# In US6387955B1, “Enhanced anti-angiogenic activity of permanently charged derivatives of steroid hormones” (Pharmos Corporation, priority 1997, dated 2002):
# System: murine endothelial cells in MCF-7 tumors
# Experiment: Endothelial cell area in GSL-1 lectin stained MCF-7 tumor sections
# Assay type: in vivo, nude mice
# Details: viable areas of tumors, three days treatment, GSL-1 staining; control tumors 14%
# Protocol: For specific staining of endothelial cells, paraffin-embedded sections (4 μm) were deparafinized and rehydrated. Sections were first treated with a blocking solution containing nonimmune goat serum for 30 min at room temperature and then with a 0.1 mg/ml solution of biotinylated Griffonia simplicifolia lectin (GSL-1) for 60 min. The GSL-1 lectin binds specifically to α-galactosyl residues and marks the vascular endothelium in mice. The sections were then washed with TRIS buffered saline (TBS) and treated for 30 min with avidin-biotin-peroxidase complex (Vector Laboratories, Burlingame, Calif.), after which the peroxidase was activated by incubation of the sections with 0.1 M acetate buffer (pH 5.2) containing 3% H2O2 and 3% 3-amino-9-ethylcarbazole for 5-10 min. […] The area of stained endothelial cells was determined by measuring the area above a threshold intensity (red 46-165; green 25-119; blue 37-94) of the peroxidase reaction product in each slice. […] Ten to fifteen areas per section were recorded for tumors treated three days with either the placebo and TMI.
# Vascular density of murine endothelial cells was evaluated by specific staining, using the GSL-1 lectin (the equivalent of factor VIII antibody staining for human endothelial systems) followed by color image analysis of the resulting sections. […]
structure (smiles),measurement,value
"CC/C(=C(\c1ccccc1)c1ccc(OCC[N+](C)(C)C)cc1)c1ccccc1 [TMI, Tamoxifen methiodide]",mean percentage of endothelial cell areas,5%
